Organism: Rattus norvegicus
Test: Open TG-GATES - Regimen: Single
Assay type: toxicity, organism-based, Sprague-Dawley
Parameters: regimen Single, gender Male, age 6 weeks
Conditions: in vivo, po, 0 mg/kg, route gavage, dose level Control; for APTT / Bas / Eos / Fbg / Hb / Ht / Lym / MCH / MCHC / MCV / Mono / Neu / PT / Plat / RBC / Ret / WBC: tissue Blood; for KIDNEY_L / KIDNEY_R / KIDNEY_TOTAL: tissue Kidney; for LIVER: tissue Liver; for A/G / ALP / ALT / AST / BUN / CRE / Ca / Cl / DBIL / GLC / IP / K / LDH / Na / PL / RALB / TBIL / TC / TG / TP / gamma-GTP: tissue Plasma

NNC(=O)c1ccncc1 [ISONIAZID] gave a TERMINAL_BW (3 h) of 225.5 g, an APTT (3 h) of 18.5 s and a Bas (3 h) of 0%. It also gave an Eos (3 h) of 1%, a Fbg (3 h) of 232.2 mg/dL and a Hb (3 h) of 13.5 g/dL. It also gave a Ht (3 h) of 37.8%, a Lym (3 h) of 80% and an MCH (3 h) of 21.5 pg. The MCHC (3 h) was 35.7%, the MCV (3 h) was 60.3 fL and the Mono (3 h) was 3%. It also gave a Neu (3 h) of 15.6%, a PT (3 h) of 11.8 s and a Plat (3 h) of 121.9 x10_4/uL. It also gave an RBC (3 h) of 627.2 x10_4/ul, a Ret (3 h) of 8.1% and a WBC (3 h) of 82.1 x10_2/uL. The KIDNEY_L (3 h) was 1 g, the KIDNEY_R (3 h) was 0.9 g and the KIDNEY_TOTAL (3 h) was 1.9 g. The LIVER (3 h) was 10.5 g, the A/G (3 h) was 1.5 and the ALP (3 h) was 945.2 IU/L. It also gave an ALT (3 h) of 34.2 IU/L, an AST (3 h) of 66 IU/L and a BUN (3 h) of 10 mg/dL. The CRE (3 h) was 0.4 mg/dL, the Ca (3 h) was 10.9 mg/dL and the Cl (3 h) was 104.2 meq/L. The DBIL (3 h) was 0.066 mg/dL, the GLC (3 h) was 195.6 mg/dL and the IP (3 h) was 8.8 mg/dL. It also gave a K (3 h) of 4.1 meq/L, an LDH (3 h) of 160 IU/L and a Na (3 h) of 141.8 meq/L. The PL (3 h) was 148.2 mg/dL, the RALB (3 h) was 3.3 g/dL and the TBIL (3 h) was 0.1 mg/dL. For the same compound, the TC (3 h) was 80.8 mg/dL, the TG (3 h) was 90.6 mg/dL and the TP (3 h) was 5.5 g/dL. The gamma-GTP (3 h) was 1.2 IU/L, the TERMINAL_BW (6 h) was 221.6 g and the APTT (6 h) was 19.9 s. For the same compound, the Bas (6 h) was 0%, the Eos (6 h) was 1% and the Fbg (6 h) was 230 mg/dL. The Hb (6 h) was 13.5 g/dL, the Ht (6 h) was 37.6% and the Lym (6 h) was 80.8%. For the same compound, the MCH (6 h) was 21.8 pg, the MCHC (6 h) was 35.8% and the MCV (6 h) was 60.9 fL. The Mono (6 h) was 3%, the Neu (6 h) was 14.6% and the PT (6 h) was 12.3 s. It also gave a Plat (6 h) of 125.3 x10_4/uL, an RBC (6 h) of 618.4 x10_4/ul and a Ret (6 h) of 8%. For the same compound, the WBC (6 h) was 96.3 x10_2/uL, the KIDNEY_L (6 h) was 1 g and the KIDNEY_R (6 h) was 0.9 g. For the same compound, the KIDNEY_TOTAL (6 h) was 1.9 g, the LIVER (6 h) was 9.2 g and the A/G (6 h) was 1.6. The ALP (6 h) was 976.8 IU/L, the ALT (6 h) was 31.2 IU/L and the AST (6 h) was 64.8 IU/L. For the same compound, the BUN (6 h) was 8.8 mg/dL, the CRE (6 h) was 0.4 mg/dL and the Ca (6 h) was 10.4 mg/dL. For the same compound, the Cl (6 h) was 104.2 meq/L, the DBIL (6 h) was 0.068 mg/dL and the GLC (6 h) was 197.6 mg/dL. The IP (6 h) was 9.8 mg/dL, the K (6 h) was 4.1 meq/L and the LDH (6 h) was 156.6 IU/L. It also gave a Na (6 h) of 141.2 meq/L, a PL (6 h) of 133.8 mg/dL and an RALB (6 h) of 3.3 g/dL. For the same compound, the TBIL (6 h) was 0.1 mg/dL, the TC (6 h) was 78.4 mg/dL and the TG (6 h) was 52.8 mg/dL. The TP (6 h) was 5.4 g/dL, the gamma-GTP (6 h) was 1.2 IU/L and the TERMINAL_BW (9 h) was 220.2 g. For the same compound, the APTT (9 h) was 17.3 s, the Bas (9 h) was 0% and the Eos (9 h) was 0.8%. The Fbg (9 h) was 221.8 mg/dL, the Hb (9 h) was 13.5 g/dL and the Ht (9 h) was 37.7%. For the same compound, the Lym (9 h) was 79.2%, the MCH (9 h) was 21.8 pg and the MCHC (9 h) was 35.7%. The MCV (9 h) was 61.1 fL, the Mono (9 h) was 2% and the Neu (9 h) was 16.6%. The PT (9 h) was 12.5 s, the Plat (9 h) was 120.7 x10_4/uL and the RBC (9 h) was 617.4 x10_4/ul. The Ret (9 h) was 7.7%, the WBC (9 h) was 101.6 x10_2/uL and the KIDNEY_L (9 h) was 0.9 g. For the same compound, the KIDNEY_R (9 h) was 0.9 g, the KIDNEY_TOTAL (9 h) was 1.9 g and the LIVER (9 h) was 8.6 g. For the same compound, the A/G (9 h) was 1.7, the ALP (9 h) was 780 IU/L and the ALT (9 h) was 31.4 IU/L. It also gave an AST (9 h) of 70 IU/L, a BUN (9 h) of 9.6 mg/dL and a CRE (9 h) of 0.4 mg/dL. For the same compound, the Ca (9 h) was 10.5 mg/dL, the Cl (9 h) was 104.6 meq/L and the DBIL (9 h) was 0.066 mg/dL. It also gave a GLC (9 h) of 200.6 mg/dL, an IP (9 h) of 9.7 mg/dL and a K (9 h) of 3.8 meq/L. For the same compound, the LDH (9 h) was 237.4 IU/L, the Na (9 h) was 142.2 meq/L and the PL (9 h) was 137.6 mg/dL. For the same compound, the RALB (9 h) was 3.4 g/dL, the TBIL (9 h) was 0.1 mg/dL and the TC (9 h) was 74.8 mg/dL. The TG (9 h) was 54.6 mg/dL, the TP (9 h) was 5.4 g/dL and the gamma-GTP (9 h) was 1 IU/L. The TERMINAL_BW (24 h) was 234.8 g, the APTT (24 h) was 18.6 s and the Bas (24 h) was 0.4%. For the same compound, the Eos (24 h) was 1.2%, the Fbg (24 h) was 217.8 mg/dL and the Hb (24 h) was 13.8 g/dL. For the same compound, the Ht (24 h) was 38%, the Lym (24 h) was 76% and the MCH (24 h) was 22.6 pg. The MCHC (24 h) was 36.2%, the MCV (24 h) was 62.3 fL and the Mono (24 h) was 2.8%. It also gave a Neu (24 h) of 19.2%, a PT (24 h) of 11.5 s and a Plat (24 h) of 127.6 x10_4/uL. The RBC (24 h) was 610 x10_4/ul, the Ret (24 h) was 7.2% and the WBC (24 h) was 106 x10_2/uL. For the same compound, the KIDNEY_L (24 h) was 1 g, the KIDNEY_R (24 h) was 1 g and the KIDNEY_TOTAL (24 h) was 2 g. For the same compound, the LIVER (24 h) was 10.9 g, the A/G (24 h) was 1.6 and the ALP (24 h) was 930.6 IU/L. It also gave an ALT (24 h) of 34 IU/L, an AST (24 h) of 68.8 IU/L and a BUN (24 h) of 14.8 mg/dL. The CRE (24 h) was 0.4 mg/dL, the Ca (24 h) was 10.9 mg/dL and the Cl (24 h) was 103.8 meq/L. For the same compound, the DBIL (24 h) was 0.058 mg/dL, the GLC (24 h) was 191 mg/dL and the IP (24 h) was 7.7 mg/dL. It also gave a K (24 h) of 4.2 meq/L, an LDH (24 h) of 190.8 IU/L and a Na (24 h) of 141.8 meq/L. For the same compound, the PL (24 h) was 154 mg/dL, the RALB (24 h) was 3.5 g/dL and the TBIL (24 h) was 0.1 mg/dL. The TC (24 h) was 80 mg/dL, the TG (24 h) was 114 mg/dL and the TP (24 h) was 5.6 g/dL. For the same compound, the gamma-GTP (24 h) was 1 IU/L.

Reference: ChEMBL document CHEMBL3885861, “Open TG-GATES”
